A short description of data set [1]: Particle size, polydispersity index (and zeta potential) of nanoparticle compositions, Zetasizer Nano ZS. Particulars: Table 1A formulations. The format is physicochemical. An outline of the steps: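 Particle size and polydispersity index were measured by dynamic light scattering on a Zetasizer Nano ZS in 1×PBS. Zeta potential was measured in 15 mM PBS.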
Data set [2] is described as follows: Encapsulation efficiency of RNA, QUANT-IT RIBOGREEN RNA assay. The format is physicochemical. The following applies: Table 1A formulations. An excerpt: The efficiency of encapsulation of a therapeutic and/or prophylactic describes the amount of therapeutic and/or prophylactic that is encapsulated or otherwise associated with a nanoparticle composition after preparation, relative to the initial amount provided. The encapsulation efficiency is desirably high (e.g., close to 100%). The encapsulation efficiency may be measured, for example, by comparing the amount of therapeutic and/or prophylactic in a solution containing the nanoparticle composition before and after breaking up the nanoparticle composition with one or more organic solvents or detergents. Fluorescence may be used to measure the amount of free therapeutic and/or prophylactic (e.g., RNA) in a solution. For the nanoparticle compositions described herein, the encapsulation efficiency of a therapeutic and/or prophylactic may be at least 50%, for example 50%, 55%, 60%, 65%, 70%, 75%, 80%, 85%, 90%, 91%, 92%, 93%, 94%, 95%, 96%, 97%, 98%, 99%, or 100%. In some embodiments, the encapsulation efficiency may be at least 80%. In certain embodiments, the encapsulation efficiency may be at least 90%.
For nanoparticle compositions including an RNA, a QUANT-IT™ RIBOGREEN® RNA assay (Invitrogen Corporation Carlsbad, Calif.) can be used to evaluate the encapsulation of an RNA by the nanoparticle composition. The samples are diluted to a concentration of approximately 5 μg/mL in a TE buffer solution (10 mM Tris-HCl, 1 mM EDTA, pH 7.5). 50 μL of the diluted samples are transferred to a polystyrene 96 well plate and either 50 μL of TE buffer or 50 μL of a 2% Triton X-100 solution is added to the wells. The plate is incubated at a temperature of 37° C. for 15 minutes. The RIBOGREEN® reagent is diluted 1:100 in TE buffer, and 100 μL of this solution is added to each well. The fluorescence intensity can be measured using a fluorescence plate reader (Wallac Victor 1420 Multilablel Counter; Perkin Elmer, Waltham, Mass.) at an excitation wavelength of, for example, about 480 nm and an emission wavelength of, for example, about 520 nm. The fluorescence values of the reagent blank are subtracted from that of each of the samples and the percentage of free RNA is determined by dividing the fluorescence intensity of the intact sample (without addition of Triton X-100) by the fluorescence value of the disrupted sample (caused by the addition of Triton X-100).

In data set [3] the test system is hEPO mRNA expression. Put plainly: hEPO expression after intravenous administration to mice. The data set is classed as in vivo. Particulars: i.v., 0.5 mpk, 3, 6 and 24 hours. Here is the method: Sample formulations of nanoparticle compositions including different lipids are generally first evaluated according to Luc expression in vivo. The activity of several such compositions was further evaluated using an mRNA encoding hEPO. Nanoparticle compositions including Compounds 6, 18, 25, 30, 108-112, 60, and 122, or MC3 were prepared according to Example 2.
(§1) The expression of hEPO and cytokine induction in mice intravenously administered a nanoparticle composition at a dose of 0.5 mpk were measured at 3, 6, and 24 hours. […] The expression of hEPO in mice intramuscularly administered a nanoparticle composition from Table 1B at a dose of 0.01 mpk were measured at 3, 6, and 24 hours. […] (see also FIG. 9.)

Data set [4] in a line: Residual lipid level in liver of rats (UPLC-MS quantification). The format is in vivo. The following applies: rat.
The nature of data set [5]: Residual lipid level in spleen of rats (UPLC-MS quantification). The data set is classed as in vivo. Particulars: 0.2 mg/kg, rat, intravenous, 0.2 mpk.
The test system of data set [6] is IL-6. Put plainly: Cytokine induction (IL-6) after intravenous administration to mice. The data set is classed as in vivo. The following applies: i.v., 0.5 mpk, 6 hours (Table 7).
Source text: The introduction of foreign material into a mammalian body induces an innate immune response that promotes cytokine production. Such immune responses to, for example, nanoparticle compositions including therapeutic and/or prophylactics, are undesirable. The induction of certain cytokines is thus measured to evaluate the […] of nanoparticle compositions. The concentrations of various cytokines in mice upon intravenous administration of nanoparticle compositions presented in Table 1A at a dosage of 0.5 mpk was measured at 6 hours. The standard MC3 formulation and a PBS control were also tested. As is evident in Table 7, IL-6 induction was highest for compositions including Compounds 1, 3, 9, 19, and 26, while IP-10 induction was highest for compositions including Compounds 3, 4, 7, 20, and 26. IL-6 induction was lowest for compositions including Compounds 4, 11, 12, and 28. IP-10 induction was lowest for compositions including Compounds 10, 11, 12, 13, 15, 17, and 18.
as §1

In data set [1], `CCCCCCCCCOC(=O)CCCCCCCN(CCO)CCCCCCCC(=O)OC(CCCCCCCC)CCCCCCCC` [Compound 18, Heptadecan-9-yl 8-((2-hydroxyethyl)(8-(nonyloxy)-8-oxooctyl)amino)octanoate] gave a PDI of 0.042. Besides, the “EE (%)” value in data set [2] turned out to be 97.50%. Moreover, the “hEPO concentrations versus MC3 formulations at each time point” value in data set [3] is given as “higher hEPO concentrations than MC3 formulations”. The concentration at 0.25 h in data set [4] (liver, 0.2 mg/kg, intravenous, 0.2 mpk, 0.25 h) was 5370 ng/g; in data set [5] (0.25 h), 1230 ng/g. In addition, the concentration at 0.5 h was determined as 6020 ng/g in data set [4] (liver, 0.2 mg/kg, intravenous, 0.2 mpk, 0.5 h) and 2020 ng/g in data set [5] (0.5 h). Besides, the concentration at 1 h in data set [4] (liver, 0.2 mg/kg, intravenous, 0.2 mpk, 1 h) stood at 6050 ng/g; in data set [5] (1 h), 3210 ng/g. Further, the concentration at 2 h in data set [4] (liver, 0.2 mg/kg, intravenous, 0.2 mpk, 2 h) amounted to 2040 ng/g; in data set [5] (2 h) it was 3070 ng/g. In addition, the concentration at 4 h was 839 ng/g in data set [4] (liver, 0.2 mg/kg, intravenous, 0.2 mpk, 4 h) and 3770 ng/g in data set [5] (4 h). The concentration at 8 h in data set [4] (liver, 0.2 mg/kg, intravenous, 0.2 mpk, 8 h) came out at 296 ng/g; in data set [5] (8 h), 1340 ng/g. Besides, the concentration at 24 h in data set [4] (liver, 0.2 mg/kg, intravenous, 0.2 mpk, 24 h) was found to be 5 ng/g; in data set [5] (24 h), 271 ng/g. Moreover, the concentration at 48 h was determined as 5370 ng/g in data set [4] (liver, 0.2 mg/kg, intravenous, 0.2 mpk, 48 h, read-out: Lipid level in liver) and 92 ng/g in data set [5] (48 h, read-out: Lipid level in spleen). Also, the “% Lipid Remaining in liver, 48 h 2 mpk” value in data set [4] (2 mpk, 48 h, assuming 300 g rat and 15 g liver) came out at 0.018%.

The molecule `CCCCCCCCCOC(=O)CCCCCCCN(CCO)CCCCCCCCCC(=O)OC(CCCCCCCC)CCCCCCCC` [Compound 23, Heptadecan-9-yl 10-((2-hydroxyethyl)(8-(nonyloxy)-8-oxooctyl)amino) decanoate] had an IL-6 in data set [6] of 94.00.

The values are drawn from patent US9868692B2, “Compounds and compositions for intracellular delivery of therapeutic agents” (MODERNATX, Inc., priority 2015, dated 2018).
